The values that follow come from ChEMBL document CHEMBL3758152, “11-Hydroxylation of Protoberberine by the Novel Berberine-Utilizing Aerobic Bacterium Sphingobium sp. Strain BD3100” (2015).

Active and inactive are the calls of the source. The rule behind the calls is not given here.

Assay [1] relates to Staphylococcus aureus. Briefly: Antibacterial activity against Staphylococcus aureus H209P at 250 nmol/disk after 12 hrs by paper disk method. Format: functional, organism-based.
For assay [2], the system named is Staphylococcus aureus. Description: Antibacterial activity against Staphylococcus aureus H209P at 125 nmol/disk after 12 hrs by paper disk method. Format: functional.

As for `COc1c(O)cc2cc3[n+](cc2c1OC)CCc1cc(O)c(O)cc1-3`, in the assay on Staphylococcus aureus [1], the outcome was inactive.
On the same count and under the same terms, in the case of `COc1cc2c(cc1OC)-c1cc3cc(O)c(OC)c(OC)c3c[n+]1CC2` it was “inactive”.
On to `COc1ccc2cc3[n+](cc2c1OC)CCc1cc2c(cc1-3)OCO2` [BERBERINE], for which the “diameter of the inhibition zone (DIZ)” value in the assay with Staphylococcus aureus [2] was 12 mm.
On to `COc1c(O)cc2cc3[n+](cc2c1OC)CCc1cc2c(cc1-3)OCO2`, for which the outcome in the assay with Staphylococcus aureus [1] was inactive.
